Experimental data: patent US11306119B2, “Peptide bound to PD-L1 and use thereof” (KYUNGPOOK NATIONAL UNIVERSITY INDUSTRY-ACADEMIC COOPERATION …, priority 2017, dated 2022)

Experiments:
[1] = test system: CT26 mouse syngeneic colon tumor; assay: Combination therapy of peptides with doxorubicin in CT26 syngeneic colon tumor model; assay type: in vivo; conditions: flow cytometry, FIG. 6e
Method: (§1) 6-8-week-old WT Balb/c mice were purchased. Mice was cared and maintained under the guidelines of the Institutional Animal Care and Use Committee (IACUC) of Kyungpook National University (2014-0001-8.). Tumor was injected onto the lower right flank of the mice. For the in-vivo homing imaging, the tumor was developed for 7 days, after the tumor size reached to 100 mm^3, the mice were injected with 100 μl of […] Flamma-675 NIR fluorescence dye labelled peptides and allow the complete circulation for an hour. After incubation, the mice were anesthetized, and the image was taken using the IVIS imaging system. […] Tumor size was measured using a digital caliper, and the tumor volume was calculated using the formula (Volume ¼ (L−W−H)/2. (Length: longest dimension, Width: shorter dimension, parallel to the mouse body and Height: perpendicular to the length and width). All mice were checked for the ulceration and at the end of the treatment and the mice were sacrificed for the immune cell analysis.
(§2) Tumors were isolated, minced and incubated with a digestion buffer containing collagenase D (5 mg/ml) with the RPMI-1640 medium at 37° C. for 40 min. […] The single cell suspension was made ready to use and CD45 antibody was used to stain the tumor infiltrating leukocytes and then analyzed with following antibodies for CD4, CD8 and F4/80. […]

CT26 syngeneic tumor = assay: Antitumor therapy in CT26 syngeneic mouse model (peptide alone); assay type: in vivo; conditions: i.v. every alternative day, 24 days, FIG. 5b
Method: as §1, §2

PD-L1 on MDA MB231 cells = assay: Peptide and receptor internalization assay in MDA MB231 cells; assay type: cell-based, human; conditions: MDA MB231, FIG. 2d
Method: MDA MB231, CT26, MCF7, Hek29 cells (1×10^5) were seeded in eight well chamber slides for overnight. Next day, the cells were washed twice with PBS and incubated with 1% BSA at RT for 1 hr to reduce the non-specific binding of peptides. The cells were then incubated with different concentration ([…]) of FITC conjugated peptide for 1 hr at 4° C. After fixation, cells were washed, and counter stained with DAPI, mounted and subjected to confocal microscopy (Zeiss, Oberkochen, Germany). For the peptide internalization assay, the MDA MB231 cells were incubated with […] concentration of FITC-conjugated peptides at 37° C. for 1 hr 30 min, the procedure was then continued as previously described. For the receptor internalization assay, first the internalization of peptide was obtained as described above and then after several washing steps with PBS, the PD-L1 antibody (1:100 dilution) was incubated with the cell for 1 hr 30 min at 37° C. […] For flow cytometry, cells (1×10^6) were harvested and then suspended in the culture medium containing 1% BSA at RT for 1 hr for blocking and then incubated with FITC-labelled PD-L1 for another 1 hr at 4° C. After several washing, 300 ul of cell suspension with PBS was subjected to flow cytometry (BD, Franklin Lakes, N.J.). […]

Substance | percentage of CD4+ T cells in tumor tissue, increased value ("to") [1] [%] | tumor volume control compared to control peptide and PBS group (CT26 syngeneic tumor) | surface PD-L1 antibody staining after peptide internalization (receptor internalization) (PD-L1 on MDA MB231 cells)
CLQKTPKQC [PD-L1Pep-1] | 6 | robust effect | 
NSSSVDK (phage coat protein used as control peptide) |  |  | did not decrease
